Measurements reported in article PMC11714206, “Massively Parallel Screening of Toll/Interleukin‐1 Receptor (TIR)‐Derived Peptides Reveals Multiple Toll‐Like Receptors (TLRs)‐Targeting Immunomodulatory Peptides” (Advanced Science, 2024).
One block for each sequence: values may come before it.

Target: T1, MAL^TIR (Homo sapiens, UniProt P58753)
T1 construct: MAL (residues 79–221); 6xHis; made in house; host or cells: E. coli BL21 (DE3)
Experiment: T‐Surf phage library (P8 and P3) selection against MAL^TIR, four rounds, NGS read counts
Assay type: binding
Details: for P8_MAL Rank (after) / P8_MAL Rank (before): P8 library; for P3_MAL Rank (after) / P3_MAL Rank (before): P3 library; for Population: 4th round of selection against MAL TIR, share of NGS reads
In short: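 Library of 190 946 TIR‐derived peptides on P8 or P3 was panned on immobilized TIR domain coated at 5 µg mL^−1, BSA‐blocked, 1 h binding at RT, PBS/0.5% Tween‐20 washes, HCl elution, TG1 amplification. Fourth‐round pools were PCR‐barcoded, sequenced (100 bp paired‐end, Phred ≥30), and peptides ranked by read counts.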

[1] = 4R selection against MAL, rank after grouping
[2] = 4R selection against MAL, rank before grouping
[3] = selection against MAL, rank after grouping
[4] = selection against MAL, rank before grouping
[5] = P8_MAL: rank by count after grouping
[6] = P8_MAL: rank by count before grouping
[7] = selection against MAL, rank by count after grouping
[8] = selection against MAL, rank by count before grouping
[9] = P8_MAL pool: P8 T-Surf phage library
[10] = P3_MAL: rank by count after grouping
[11] = P3_MAL: rank by count before grouping
[12] = selection against MAL TIR, rank by count after grouping
[13] = selection against MAL TIR, rank by count before grouping
[14] = P3_MAL pool: P3 T-Surf phage library

T1 sequence (P58753 79-221): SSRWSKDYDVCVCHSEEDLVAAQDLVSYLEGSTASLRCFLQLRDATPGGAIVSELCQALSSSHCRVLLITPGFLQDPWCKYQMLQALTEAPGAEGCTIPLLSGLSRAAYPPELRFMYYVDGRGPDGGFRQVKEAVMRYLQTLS

P8_MAL Rank (after) [1]: 601
P8_MAL Rank (before) [2]: 2071
Sequence: LFFWECLKKLLRRDGR

P8_MAL Rank (after) [1]: 640
P8_MAL Rank (before) [2]: 2171
Sequence: RDFVAYLFQALANKGL

P3_MAL Rank (after) [3]: 570
P3_MAL Rank (before) [4]: 1688
Sequence: VLQNFISHPYDFLARK

Rank (after) [5]: 420
Rank (before) [6]: 2221
Sequence: RNFVAYLLQALAHKCI

P3_MAL Rank (after) [7]: 696
P3_MAL Rank (before) [8]: 3747
Sequence: KNLFHELVIKNIRTFM

Population [9]: 0.00463%
Sequence: RNFVAYLFQELANKGI

Population [9]: 0.00371%
Sequence: AFLGHLYNALVQAGIH

P3_MAL Rank (after) [1]: 619
P3_MAL Rank (before) [2]: 2301
Sequence: LKVKLASGAGKSGQT

P3_MAL Rank (after) [7]: 736
P3_MAL Rank (before) [8]: 3610
Sequence: KERPFGAQRAEKWRA

P3_MAL Rank (after) [1]: 639
P3_MAL Rank (before) [2]: 3743
Sequence: KTLAGLRCDHLFRLRL

P3_MAL Rank (after) [1]: 612
P3_MAL Rank (before) [2]: 2490
Sequence: RLLKWNEELHLFHSWV

Rank (after) [10]: 148
Rank (before) [11]: 2470
Sequence: RLLKWKEALQQVHSWV

P8_MAL Rank (after) [7]: 677
P8_MAL Rank (before) [8]: 2165
Sequence: LRKIADLSGWTLKSFR

P3_MAL Rank (after) [12]: 224
P3_MAL Rank (before) [13]: 3203
Sequence: SSFTSHLYDRLQRSGI

P3_MAL Rank (after) [3]: 510
P3_MAL Rank (before) [4]: 3703
Sequence: KMKYWKDALYDASNLS

P8_MAL Rank (after) [3]: 554
P8_MAL Rank (before) [4]: 1775
Sequence: AFLGAQLKSVLGKPTM

P3_MAL Rank (after) [12]: 192
P3_MAL Rank (before) [13]: 979
Sequence: HQAFTGHLHRYLVQRGV

P8_MAL Rank (after) [12]: 201
P8_MAL Rank (before) [13]: 2708
Sequence: KLFWEKFKFFLPTPSR

P8_MAL Rank (after) [1]: 606
P8_MAL Rank (before) [2]: 1091
Sequence: FTLSVHVRNWLAGAFI

P3_MAL Rank (after) [1]: 586
P3_MAL Rank (before) [2]: 2982
Sequence: SLLKYKEALPQFHSWL

P8_MAL Rank (after) [3]: 487
P8_MAL Rank (before) [4]: 1524
Sequence: YVLHFLLFSRREPEYI

P8_MAL Rank (after) [3]: 502
P8_MAL Rank (before) [4]: 2655
Sequence: NYASSSWALDELWNIF

P8_MAL Rank (after) [12]: 256
P8_MAL Rank (before) [13]: 1108
Sequence: CFYQRLVSLILHDTKV

P3_MAL Rank (after) [1]: 655
P3_MAL Rank (before) [2]: 1960
Sequence: DIQSSRLKDDADLVGQ

Rank (after) [5]: 400
Rank (before) [6]: 2621
Sequence: TFLDRLYNPLVHAGIH

P3_MAL Rank (after) [1]: 618
P3_MAL Rank (before) [2]: 3319
Sequence: NLWKLWTKPGGVRDDR

Rank (after) [10]: 175
Rank (before) [11]: 2692
Sequence: PNLRTNVMNYLMRTKT

P8_MAL Rank (after) [1]: 656
P8_MAL Rank (before) [2]: 1513
Sequence: YFLQFLVFRRLGNEYV

Rank (after) [10]: 388
Rank (before) [11]: 2938
Sequence: MRLPAICNVIWCSVA

Rank (after) [5]: 443
Rank (before) [6]: 2381
Sequence: QLIQQWSELHLHQLQL

P3_MAL Rank (after) [1]: 653
P3_MAL Rank (before) [2]: 2489
Sequence: RLLKWIETLHQFHSWV

P8_MAL Rank (after) [12]: 209
P8_MAL Rank (before) [13]: 1867
Sequence: AFLYTFLNTLTHPTNF

P8_MAL Rank (after) [1]: 648
P8_MAL Rank (before) [2]: 2065
Sequence: LFFWASLNKLLRSDGR

P8_MAL Rank (after) [7]: 721
P8_MAL Rank (before) [8]: 2639
Sequence: TLLDHLCNELVQAGIH

P8_MAL Rank (after) [3]: 542
P8_MAL Rank (before) [4]: 2394
Sequence: HFFWFKLKSILGETSF

Rank (after) [5]: 391
Rank (before) [6]: 2537
Sequence: TFLGHLYNTLVQASIF

P3_MAL Rank (after) [3]: 499
P3_MAL Rank (before) [4]: 2630
Sequence: PYLRTQVLNYLMRTKN

Population [14]: 0.00338%
Sequence: YAFTGHLHRYLVQRGA

P8_MAL Rank (after) [3]: 511
P8_MAL Rank (before) [4]: 1354
Sequence: WFLLKFRTVLAHVNDV

Population [9]: 0.0034%
Sequence: AFLYTFLINRTHPTNF

Rank (after) [10]: 449
Rank (before) [11]: 2320
Sequence: RFWERLRYMMPDSSL

P8_MAL Rank (after) [7]: 714
P8_MAL Rank (before) [8]: 2184
Sequence: RNFWRIFFRRWPIKG

Rank (after) [10]: 145
Rank (before) [11]: 3369
Sequence: NQWRNALTAAANLRGR

P3_MAL Rank (after) [12]: 262
P3_MAL Rank (before) [13]: 761
Sequence: VLQKFISHLYDFLARK

P8_MAL Rank (after) [3]: 489
P8_MAL Rank (before) [4]: 2304
Sequence: RFMMKFRTELDRGNGG

P3_MAL Rank (after) [1]: 608
P3_MAL Rank (before) [2]: 2730
Sequence: PNLRTKVPDYLKRTKT

Population [14]: 0.00338%
Sequence: YAFTGHLRRYLVQRGV

Rank (after) [10]: 177
Rank (before) [11]: 2497
Sequence: RLLKWKEALQQFHSGV

P8_MAL Rank (after) [1]: 621
P8_MAL Rank (before) [2]: 2387
Sequence: QLIQQWSELHLLQLHL

Population [14]: 0.00376%
Sequence: NQWRNTLTAAANLSGW

P3_MAL Rank (after) [3]: 561
P3_MAL Rank (before) [4]: 1392
Sequence: YAFTGHLHRYLVRRSA

P8_MAL Rank (after) [12]: 225
P8_MAL Rank (before) [13]: 2193
Sequence: RNFVAYLFRARANKGI
